Data as given in the NIST ThermoML archive (doi:10.1016/j.tca.2013.03.025).
± gives the expanded uncertainty stated by the source.

Test: xn = mol fraction of the nth substance listed
Conditions: 101 kPa, Liquid; for viscosity: Concentric cylinders viscometry; for mass density: Vibrating tube method

CCCCOC(=O)C(C)O (stereo not given) [butyl 2-hydroxypropanoate] + CCCO
Conditions | mass density [kg/m3] | viscosity [mPa·s]
288.15 K, x1 = 0.1 | 841.535 ± 0.18 | 2.632 ± 0.026
288.15 K, x1 = 0.2 | 869.447 ± 0.24 | 2.786 ± 0.029
288.15 K, x1 = 0.3001 | 892.853 ± 0.32 | 2.979 ± 0.033
288.15 K, x1 = 0.3998 | 912.61 ± 0.44 | 3.19 ± 0.037
288.15 K, x1 = 0.5 | 929.664 ± 0.59 | 3.406 ± 0.043
288.15 K, x1 = 0.5999 | 944.359 ± 0.77 | 3.623 ± 0.048
288.15 K, x1 = 0.7001 | 957.317 ± 0.99 | 3.83 ± 0.055
288.15 K, x1 = 0.7996 | 968.544 ± 1.2 | 4.04 ± 0.062
288.15 K, x1 = 0.8998 | 978.506 ± 1.5 | 4.287 ± 0.07
288.15 K, x1 = 1 | 987.269 ± 1.8 | 4.628 ± 0.081
293.15 K, x1 = 0.1 | 837.385 ± 0.18 | 2.305 ± 0.023
293.15 K, x1 = 0.2 | 865.152 ± 0.24 | 2.431 ± 0.025
293.15 K, x1 = 0.3001 | 888.44 ± 0.32 | 2.584 ± 0.028
293.15 K, x1 = 0.3998 | 908.086 ± 0.44 | 2.751 ± 0.032
293.15 K, x1 = 0.5 | 925.055 ± 0.59 | 2.921 ± 0.037
293.15 K, x1 = 0.5999 | 939.67 ± 0.77 | 3.092 ± 0.042
293.15 K, x1 = 0.7001 | 952.563 ± 0.98 | 3.257 ± 0.047
293.15 K, x1 = 0.7996 | 963.731 ± 1.2 | 3.426 ± 0.053
293.15 K, x1 = 0.8998 | 973.646 ± 1.5 | 3.622 ± 0.059
293.15 K, x1 = 1 | 982.366 ± 1.8 | 3.88 ± 0.068
298.15 K, x1 = 0.1 | 833.207 ± 0.18 | 2.034 ± 0.02
298.15 K, x1 = 0.2 | 860.837 ± 0.24 | 2.147 ± 0.022
298.15 K, x1 = 0.3001 | 883.997 ± 0.32 | 2.277 ± 0.025
298.15 K, x1 = 0.3998 | 903.535 ± 0.44 | 2.413 ± 0.028
298.15 K, x1 = 0.5 | 920.415 ± 0.58 | 2.548 ± 0.032
298.15 K, x1 = 0.5999 | 934.96 ± 0.76 | 2.679 ± 0.036
298.15 K, x1 = 0.7001 | 947.782 ± 0.97 | 2.81 ± 0.041
298.15 K, x1 = 0.7996 | 958.893 ± 1.2 | 2.946 ± 0.045
298.15 K, x1 = 0.8998 | 968.763 ± 1.5 | 3.104 ± 0.051
298.15 K, x1 = 1 | 977.448 ± 1.8 | 3.307 ± 0.058
303.15 K, x1 = 0.1 | 828.994 ± 0.18 | 1.796 ± 0.018
303.15 K, x1 = 0.2 | 856.474 ± 0.24 | 1.888 ± 0.02
303.15 K, x1 = 0.3001 | 879.517 ± 0.32 | 1.994 ± 0.022
303.15 K, x1 = 0.3998 | 898.955 ± 0.43 | 2.105 ± 0.025
303.15 K, x1 = 0.5 | 915.748 ± 0.58 | 2.219 ± 0.028
303.15 K, x1 = 0.5999 | 930.218 ± 0.76 | 2.328 ± 0.032
303.15 K, x1 = 0.7001 | 942.977 ± 0.97 | 2.439 ± 0.035
303.15 K, x1 = 0.7996 | 954.036 ± 1.2 | 2.554 ± 0.039
303.15 K, x1 = 0.8998 | 963.865 ± 1.5 | 2.685 ± 0.044
303.15 K, x1 = 1 | 972.515 ± 1.8 | 2.85 ± 0.05
308.15 K, x1 = 0.1 | 824.744 ± 0.19 | 1.603 ± 0.016
308.15 K, x1 = 0.2 | 852.093 ± 0.24 | 1.679 ± 0.018
308.15 K, x1 = 0.3001 | 875.001 ± 0.32 | 1.769 ± 0.02
308.15 K, x1 = 0.3998 | 894.346 ± 0.43 | 1.862 ± 0.022
308.15 K, x1 = 0.5 | 911.045 ± 0.58 | 1.957 ± 0.025
308.15 K, x1 = 0.5999 | 925.444 ± 0.75 | 2.05 ± 0.028
308.15 K, x1 = 0.7001 | 938.146 ± 0.96 | 2.143 ± 0.031
308.15 K, x1 = 0.7996 | 949.162 ± 1.2 | 2.238 ± 0.035
308.15 K, x1 = 0.8998 | 958.949 ± 1.5 | 2.346 ± 0.039
308.15 K, x1 = 1 | 967.567 ± 1.8 | 2.481 ± 0.043
313.15 K, x1 = 0.1 | 820.45 ± 0.19 | 1.431 ± 0.015
313.15 K, x1 = 0.2 | 847.649 ± 0.24 | 1.5 ± 0.016
313.15 K, x1 = 0.3001 | 870.443 ± 0.32 | 1.579 ± 0.018
313.15 K, x1 = 0.3998 | 889.684 ± 0.43 | 1.659 ± 0.02
313.15 K, x1 = 0.5 | 906.306 ± 0.57 | 1.739 ± 0.022
313.15 K, x1 = 0.5999 | 920.642 ± 0.75 | 1.818 ± 0.025
313.15 K, x1 = 0.7001 | 933.287 ± 0.95 | 1.899 ± 0.028
313.15 K, x1 = 0.7996 | 944.258 ± 1.2 | 1.982 ± 0.031
313.15 K, x1 = 0.8998 | 954.012 ± 1.5 | 2.075 ± 0.034
313.15 K, x1 = 1 | 962.603 ± 1.8 | 2.181 ± 0.038
318.15 K, x1 = 0.1 | 816.108 ± 0.19 | 1.287 ± 0.013
318.15 K, x1 = 0.2 | 843.16 ± 0.24 | 1.349 ± 0.015
318.15 K, x1 = 0.3001 | 865.84 ± 0.32 | 1.417 ± 0.016
318.15 K, x1 = 0.3998 | 884.981 ± 0.43 | 1.486 ± 0.018
318.15 K, x1 = 0.5 | 901.531 ± 0.57 | 1.554 ± 0.02
318.15 K, x1 = 0.5999 | 915.803 ± 0.74 | 1.623 ± 0.022
318.15 K, x1 = 0.7001 | 928.398 ± 0.94 | 1.693 ± 0.025
318.15 K, x1 = 0.7996 | 939.33 ± 1.2 | 1.766 ± 0.028
318.15 K, x1 = 0.8998 | 949.054 ± 1.4 | 1.847 ± 0.031
318.15 K, x1 = 1 | 957.624 ± 1.7 | 1.935 ± 0.034
323.15 K, x1 = 0.1 | 811.714 ± 0.19 | 1.169 ± 0.012
323.15 K, x1 = 0.2 | 838.623 ± 0.24 | 1.222 ± 0.013
323.15 K, x1 = 0.3001 | 861.188 ± 0.32 | 1.28 ± 0.015
323.15 K, x1 = 0.3998 | 880.239 ± 0.43 | 1.339 ± 0.016
323.15 K, x1 = 0.5 | 896.715 ± 0.57 | 1.398 ± 0.018
323.15 K, x1 = 0.5999 | 910.93 ± 0.74 | 1.458 ± 0.02
323.15 K, x1 = 0.7001 | 923.482 ± 0.94 | 1.519 ± 0.022
323.15 K, x1 = 0.7996 | 934.378 ± 1.2 | 1.584 ± 0.025
323.15 K, x1 = 0.8998 | 944.076 ± 1.4 | 1.653 ± 0.028
323.15 K, x1 = 1 | 952.631 ± 1.7 | 1.728 ± 0.031
